Among the data in US20050245563A1 (Millennium Pharmaceuticals, Inc., priority 2003, published 2005) are IC50 values, retold here.

Structures are written as SMILES.

This experiment deals with T1, human Chk1 (GST-Chk1) (Homo sapiens, UniProt O14757).
T1 construct: made in house; host or cells: insect cells (baculovirus, Bac-to-Bac)
T1 sequence (O14757 1-476): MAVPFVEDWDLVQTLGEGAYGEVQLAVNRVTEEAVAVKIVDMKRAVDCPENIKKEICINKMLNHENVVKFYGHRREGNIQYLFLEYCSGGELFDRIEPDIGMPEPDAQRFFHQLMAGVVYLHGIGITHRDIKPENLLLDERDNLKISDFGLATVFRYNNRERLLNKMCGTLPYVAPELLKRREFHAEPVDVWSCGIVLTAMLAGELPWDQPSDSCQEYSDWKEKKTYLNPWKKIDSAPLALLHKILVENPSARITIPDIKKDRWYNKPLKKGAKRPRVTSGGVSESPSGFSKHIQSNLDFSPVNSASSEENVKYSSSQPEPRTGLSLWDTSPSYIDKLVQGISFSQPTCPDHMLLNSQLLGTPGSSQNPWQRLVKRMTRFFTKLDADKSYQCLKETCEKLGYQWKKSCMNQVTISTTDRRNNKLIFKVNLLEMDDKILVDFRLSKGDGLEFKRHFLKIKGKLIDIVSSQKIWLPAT
Briefly: Chk1 FlashPlate kinase assay. It counts as biochemical. The following applies: 8.7 nM GST-Chk1, 1 uM ATP, 33P incorporation into peptide substrate. How it is done:
Recombinant human Chk1 was expressed as a fusion protein with glutathione S-transferase at the amino-terminus (GST-Chk1) using standard baculovirus vectors and (Bac-to-Bac®) insect cell expression system purchased from GIBCO™ Invitrogen. Recombinant protein expressed in insect cells was purified using glutathione sepharose (Amersham Biotech) using standard procedures described by the manufacturer.
Chk1 FlashPlate® Kinase Assay:
Assays (25 μL) contained 8.7 nM GST-Chk1, 10 mM MES, 0.1 mM ethylene glycol-bis(β-aminoethylether)-N,N,N′,N′-tetracetic acid (EGTA, pH 8.0), 2 mM DTT, 0.05% Tween 20, 3 uM peptide substrate (Biotin-ILSRRPSYRKILND-free acid) (SEQ ID NO: 1), 1 uM ATP, 0.4 uCi ^33P-γ-ATP (NEN), 4% DMSO. Reactions were incubated for 30 minutes at room temperature, terminated with 50 μL of 50 mM EDTA and 90 μL were transferred to streptavidin-coated FlashPlates® (NEN) and incubated for 1 hour at room temperature. Plates were washed with phosphate buffered salaine containing 0.01% Tween-20 and 10 mM sodium pyrophosphate. Plates were dried, sealed with Topseal™ (NEN) and amount of ^33P incorporated into the peptide substate measure using a Packard Topcount® NXT™ scintillation counter with standard settings.
One may read the IC50 as the concentration that gives 50% inhibition. A low value points to inhibition by little substance. In the case of `Cc1n[nH]c2c1c(=O)n(CC(N)Cc1ccccc1)c1ccccc21` (centres unmarked) [Example 23, 5-(2-Amino-3-phenyl-propyl)-3-methyl-1,5-dihydro-pyrazolo[4,3-c]quinolin-4-one], the IC50 is > 20 µM.
Turning to `Cc1[nH]nc2c1c(=O)[nH]c1c(OCCCNC(=O)OC(C)(C)C)cccc12` [Example 24, [3-(3-Methyl-4-oxo-4,5-dihydro-2H-pyrazolo[4,3-c]quinolin-6-yloxy)-propyl]-carbamic acid tert-butyl ester], the IC50 is > 20 µM.
Compound `Cc1[nH]nc2c1c(=O)[nH]c1c(OCCCN)cccc12` [Example 25, 6-(3-Amino-propoxy)-3-methyl-2,5-dihydro-pyrazolo[4,3-c]quinolin-4-one] gave an IC50 of 1 to 20 µM.
The value for `Cc1n[nH]c2c1c(=O)n(CCCCNC(=O)OC(C)(C)C)c1ccc(Br)cc21` [Example 29, [4-(8-Bromo-3-methyl-4-oxo-1,4-dihydro-pyrazolo[4,3-c]quinolin-5-yl)-butyl]-carbamic acid tert-butyl ester] was < 1 µM.
In turn, `Cc1n[nH]c2c1c(=O)n(CC1CCCN(C(=O)OC(C)(C)C)C1)c1ccc(Br)cc21` (centres unmarked) [Example 30, 3-(8-Bromo-3-methyl-4-oxo-1,4-dihydro-pyrazolo[4,3-c]quinolin-5-ylmethyl)-piperidine-1-carboxylic acid tert-butyl ester] showed an IC50 of 1 to 20 µM.
Turning to `Cc1n[nH]c2c1c(=O)n(CCCNC(=O)OC(C)(C)C)c1ccc(Cl)cc21` [Example 31, [3-(8-Chloro-3-methyl-4-oxo-1,4-dihydro-pyrazolo[4,3-c]quinolin-5-yl)-propyl]-carbamic acid tert-butyl ester], the IC50 was < 1 µM.
On to `Cc1[nH]nc2c1c(=O)n(CCCN)c1ccc(Cl)cc21` [Example 32, 5-(3-Amino-propyl)-8-chloro-3-methyl-1,5-dihydro-pyrazolo[4,3-c]quinolin-4-one], for which the IC50 was < 1 µM.
Regarding `Cc1n[nH]c2c1c(=O)n(CCCCN)c1ccc(Br)cc21` [Example 34, 5-(4-Amino-butyl)-8-bromo-3-methyl-1,5-dihydro-pyrazolo[4,3-c]quinolin-4-one], the IC50 is < 1 µM.
In the case of `Cc1[nH]nc2c1c(=O)n(CCCNC(=O)CC(C)C)c1ccccc21` [Example 35, 3-Methyl-N-[3-(3-methyl-4-oxo-2,4-dihydro-pyrazolo[4,3-c]quinolin-5-yl)-propyl]-butyramide], the IC50 is < 1 µM.
Regarding `Cc1n[nH]c2c1c(=O)n(CCCCNC(=O)c1ccccc1)c1ccc(Br)cc21` [Example 36, N-[4-(8-Bromo-3-methyl-4-oxo-1,4-dihydro-pyrazolo[4,3-c]quinolin-5-yl)-butyl]-benzamide], the IC50 is < 1 µM.
`Cc1n[nH]c2c1c(=O)n(CC1CCN(C(=O)OC(C)(C)C)CC1)c1ccc(Br)cc21` [Example 37, 4-(8-Bromo-3-methyl-4-oxo-1,4-dihydro-pyrazolo[4,3-c]quinolin-5-ylmethyl)-piperidine-1-carboxylic acid tert-butyl ester] returned an IC50 of 1 to 20 µM.
The value for `Cc1n[nH]c2c1c(=O)n(CC1CCNCC1)c1ccc(Br)cc21` [Example 39, 8-Bromo-3-methyl-5-piperidin-4-ylmethyl-1,5-dihydro-pyrazolo[4,3-c]quinolin-4-one] was < 1 µM; that for `Cc1n[nH]c2c1c(=O)n(CCCNC(=O)c1ccc(Cl)cc1)c1ccc(Cl)cc21` [Example 40, 4-Chloro-N-[3-(8-chloro-3-methyl-4-oxo-1,4-dihydro-pyrazolo[4,3-c]quinolin-5-yl)-propyl]-benzamide] was < 1 µM.
For `Cc1n[nH]c2c1c(=O)n(CC(C)CNC(=O)OC(C)(C)C)c1ccc(Br)cc21` (centres unmarked) [Example 41, [3-(8-Bromo-3-methyl-4-oxo-1,4-dihydro-pyrazolo[4,3-c]quinolin-5-yl)-2-methyl-propyl]-carbamic acid tert-butyl ester] the value was < 1 µM; for `Cc1n[nH]c2c1c(=O)n(CC(C)CN)c1ccc(Br)cc21` (centres unmarked) [Example 42, 5-(3-Amino-2-methyl-propyl)-8-bromo-3-methyl-1,5-dihydro-pyrazolo[4,3-c]quinolin-4-one], < 1 µM.
For the compound `Cc1n[nH]c2c1c(=O)n(CCCNC(=O)OCc1ccccc1)c1ccc(Br)cc21` [Example 43, [3-(8-Bromo-3-methyl-4-oxo-1,4-dihydro-pyrazolo[4,3-c]quinolin-5-yl)-propyl]-carbamic acid benzyl ester], the half-inhibitory concentration (IC50) is < 1 µM.
Turning to `Cc1ccc2c(c1)c1n[nH]c(C)c1c(=O)n2CCCNC(=O)OC(C)(C)C` [Example 44, [3-(3,8-Dimethyl-4-oxo-2,4-dihydro-pyrazolo[4,3-c]quinolin-5-yl)-propyl]-carbamic acid tert-butyl ester], the IC50 was < 1 µM.
With `Cc1ccc2c(c1)c1n[nH]c(C)c1c(=O)n2CCCN` [Example 45, 5-(3-Amino-propyl)-3,8-dimethyl-2,5-dihydro-pyrazolo[4,3-c]quinolin-4-one], the IC50 is < 1 µM.
Regarding `Cc1n[nH]c2c1c(=O)n(C[C@@H](C)CNC(=O)OC(C)(C)C)c1ccc(Br)cc21` [Example 46, [3-(8-Bromo-3-methyl-4-oxo-1,4-dihydro-pyrazolo[4,3-c]quinolin-5-yl)-2-S-methyl-propyl]-carbamic acid tert-butyl ester], the IC50 is < 1 µM.
For `Cc1n[nH]c2c1c(=O)n(C[C@@H](C)CN)c1ccc(Br)cc21` [Example 47, 5-(3-Amino-2-S-methyl-propyl)-8-bromo-3-methyl-1,5-dihydro-pyrazolo[4,3-c]quinolin-4-one] the value was < 1 µM.
On to `Cc1n[nH]c2c1c(=O)n(CC1CCCNC1)c1ccc(Br)cc21` (centres unmarked) [Example 48, 8-Bromo-3-methyl-5-piperidin-3-ylmethyl-1,5-dihydro-pyrazolo [4,3-c]quinolin-4-one], for which the IC50 was < 1 µM.
For the compound `COCCc1[nH]nc2c1c(=O)n(CCCN)c1ccc(Cl)cc21` [Example 50, 5-(3-Amino-propyl)-8-chloro-3-(2-methoxy-ethyl)-2,5-dihydro-pyrazolo[4,3-c]quinolin-4-one], the IC50 is < 1 µM.
Take `Cc1n[nH]c2c1c(=O)n(CCCNCCc1ccccc1)c1ccccc21` [Example 51, 3-Methyl-5-(3-phenethylamino-propyl)-1,5-dihydro-pyrazolo[4,3-c]quinolin4-one]: the IC50 was < 1 µM.
The value for `Cc1n[nH]c2c1c(=O)n(CCNC(=O)OC(C)(C)C)c1ccc(Br)cc21` [Example 52, [2-(8-Bromo-3-methyl-4-oxo-1,4-dihydro-pyrazolo[4,3-c]quinolin-5-yl)-ethyl]-carbamic acid tert-butyl ester] was < 1 µM; that for `Cc1n[nH]c2c1c(=O)n(CCN)c1ccc(Br)cc21` [Example 53, 5-(2-Amino-ethyl)-8-bromo-3-methyl-1,5-dihydro-pyrazolo[4,3-c]quinolin4-one] was < 1 µM; that for `Cc1[nH]nc2c1c(=O)n(CCCN)c1ccc([N+](=O)[O-])cc21` [Example 55, 5-(3-Amino-propyl)-3-methyl-8-nitro-2,5-dihydro-pyrazolo[4,3-c]quinolin-4-one] was < 1 µM.
Take `Cc1n[nH]c2c1c(=O)n(CCCNC(=O)OC(C)(C)C)c1ccc(Br)cc21` [Example 56, [3-(8-Bromo-3-methyl-4-oxo-1,4-dihydro-pyrazolo[4,3-c]quinolin-5-yl)-propyl]-carbamic acid tert-butyl ester]: the IC50 is < 1 µM.
As for `Cc1[nH]nc2c1c(=O)n(CCCN)c1ccc(Br)cc21` [Example 57, 5-(3-Amino-propyl)-8-bromo-3-methyl-1,5-dihydro-pyrazolo[4,3-c]quinolin-4-one], the IC50 is < 1 µM.
Turning to `COc1ccc2c(c1)c1n[nH]c(C)c1c(=O)n2CCCN` [Example 58], the IC50 is < 1 µM.
Take `Cc1[nH]nc2c1c(=O)n(CCCN)c1ccc(O)cc21` [Example 59, 5-(3-Amino-propyl)-8-hydroxy-3-methyl-2,5-dihydro-pyrazolo[4,3-c]quinolin-4-one]: the IC50 was < 1 µM.
As for `Cc1[nH]nc2c1c(=O)n(CCCNC(=O)c1ccc(Cl)cc1)c1ccccc21` [Example 60, 4-Chloro-N-[3-(3-methyl-4-oxo-2,4-dihydro-pyrazolo[4,3-c]quinolin-5-yl)-propyl]-benzamide], the IC50 was < 1 µM.
For `Cc1[nH]nc2c1c(=O)n(CCCNC(=O)c1ccc([N+](=O)[O-])cc1)c1ccccc21` [Example 61, N-[3-(3-Methyl-4-oxo-2,4-dihydro-pyrazolo[4,3-c]quinolin-5-yl)-propyl]-4-nitro-benzamide] the value was < 1 µM.
